# Data taken from ChEMBL document CHEMBL3862002, “Wortmannilactones I-L, new NADH-fumarate reductase inhibitors, induced by adding suberoylanilide hydroxamic acid to the culture medium of Talaromyces wortmannii” (Bioorg Med Chem Lett, 2016).
# What was measured:
# Fumarate reductase = target: T1, Fumarate reductase (Ascaris suum, UniProt F1KRD8); experiment: Inhibition of NADH-Fumarate reductase in Ascaris suum muscle sub-mitochondrial particles using disodium fumarate as substrate in presence of NADH after 3 mins measured every 15 sec for 10 mins under anaerobic condition
# T1 sequence (F1KRD8 whole entry): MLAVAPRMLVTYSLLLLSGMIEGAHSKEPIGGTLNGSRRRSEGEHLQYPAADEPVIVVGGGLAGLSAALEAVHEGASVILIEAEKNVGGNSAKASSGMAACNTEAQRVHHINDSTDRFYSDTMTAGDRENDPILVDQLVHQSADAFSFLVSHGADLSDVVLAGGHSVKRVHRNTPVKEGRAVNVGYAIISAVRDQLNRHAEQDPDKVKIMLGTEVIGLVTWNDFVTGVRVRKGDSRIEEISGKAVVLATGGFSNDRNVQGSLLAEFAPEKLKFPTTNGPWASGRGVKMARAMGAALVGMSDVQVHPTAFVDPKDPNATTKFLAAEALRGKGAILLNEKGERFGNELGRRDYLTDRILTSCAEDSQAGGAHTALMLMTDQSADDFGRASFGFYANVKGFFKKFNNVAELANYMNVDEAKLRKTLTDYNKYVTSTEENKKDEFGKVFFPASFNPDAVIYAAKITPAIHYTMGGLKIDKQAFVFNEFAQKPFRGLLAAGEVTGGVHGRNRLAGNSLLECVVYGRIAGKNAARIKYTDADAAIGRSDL
# [1] = Inhibition of NADH oxidase in pig heart sub-mitochondrial particles using NADH as substrate after 3 mins measured every 15 sec for 10 mins under aerobic condition; parameters: species or system Sus scrofa
Compound,IC50 (Fumarate reductase),IC50 [1]
CC1=C[C@@](C)(O)[C@@H](C)O[C@H]1/C(C)=C/C=C/C=C/C=C/C(C)=C/[C@]1(C)[C@H]2OC(=O)[C@]1(C)C(=O)[C@@H]2C,2.4 nM,–
CC1=C[C@@](C)(O)[C@@H](C)O[C@@H]1/C(C)=C/C=C/C=C/C=C/C(C)=C/[C@]1(C)[C@H]2OC(=O)[C@]1(C)C(=O)[C@@H]2C,470 nM,–
Cc1cc(/C=C/c2ccc3cc(N(C)C)ccc3[n+]2C)c(C)n1-c1ccccc1 [PYRVINIUM PAMOATE],500 nM,–
C=C1C=C(C)[C@H](/C(C)=C/C=C/C=C/C=C/[C@]2(C)[C@H]3OC(=O)[C@]2(C)C(=O)[C@@H]3C)O[C@H]1C,840 nM,35000 nM
CC1=C[C@](C)(O)[C@H](/C(C)=C/C=C/C=C/C=C/[C@]2(C)[C@H]3OC(=O)[C@]2(C)C(=O)[C@@H]3C)O[C@H]1C,850 nM,56000 nM
CO[C@@]1(C)C=C(C)[C@H](/C(C)=C/C=C/C=C/C=C/[C@]2(C)[C@H]3OC(=O)[C@]2(C)C(=O)[C@@H]3C)O[C@H]1C,840 nM,100000 nM
CO[C@]1(C)C=C(C)[C@H](/C(C)=C/C=C/C=C/C=C/[C@]2(C)[C@H]3OC(=O)[C@]2(C)C(=O)[C@@H]3C)O[C@H]1C,1350 nM,145000 nM
